Assay results reported in patent EP0388528B1, “Carboximidamide derivatives” (KIRIN BEER KABUSHIKI KAISHA, priority 1988, dated 1990).

System: isolated rat aortae
Test: Vasorelaxing effect on the isolated rat aortae (Referential Example 1)-1)
Settings: inhibition of contraction induced by 40 mM KCl
Description: The compounds of the present invention were tested for their physiological activities by measuring the tension of isolated rat aortae isometrically.
Thoracic aortae obtained from male Wistar rats (weighing 250-350 g) were cut into ring segments about 3 mm long. The ring preparation was placed in an organ bath filled with 10 ml of Krebs-Ringer solution that was maintained at 37°C and gassed with 95% O₂ - 5% CO₂.
The preparation in the organ bath was allowed to equilibrate under resting tension of 1 g. After equilibration period, the solution in the organ bath was replaced with an isotonic solution containing 40 mM KCl to contract the preparation.
After the contraction induced by KCl had reached plateau, the concentration-response relationship for the test compound was determined by means of cumulative addition.
The relaxation response of the test compounds was expressed as the percent inhibition of the contraction induced by KCl, and the IC₅₀ value, which is a concentration required for inhibiting the contraction induced by KCl to an extent of 50%, was calculated by the Probit method from the concentration-response curve.

SMILES	IC50
CC(N=C(NC#N)c1ccccn1)C(C)(C)C (stereo not drawn) [(3), N-cyano-N'-(1,2,2-trimethylpropyl)-2-pyridinecarboximidamide]	49 µM
COc1ccc(N=C(NC#N)c2ccccn2)cc1 [(5), N-cyano-N'-(4-methoxyphenyl)-2-pyridinecarboximidamide]	65 µM
Cc1ccc(CN=C(NC#N)c2ccccn2)cc1 [(6), N-cyano-N'-(4-methylbenzyl)-2-pyridinecarboximidamide]	51 µM
N#CNC(=NCc1ccc(Cl)cc1)c1ccccn1 [(7), N-cyano-N'-(4-chlorobenzyl)-2-pyridinecarboximidamide]	23 µM
CC(N=C(NC#N)c1ccccn1)C(O)c1ccccc1 (stereo not drawn) [(11), N-cyano-N'-(2-hydroxy-1-methyl-2-phenylethyl)-2-pyridinecarboximidamide]	12 µM
N#CNC(=NCc1cccs1)c1ccccn1 [(12), N-cyano-N'-(2-thienylmethyl)-2-pyridinecarboximidamide]	24 µM
N#CNC(=NCCCO[N+](=O)[O-])c1cccnc1 [(14), N-cyano-N'-(3-nitroxypropyl)-3-pyridinecarboximidamide]	20 µM
CC(C)(C)CCN=C(NC#N)c1cccnc1 [(15), N-cyano-N'-(3,3-dimethylbutyl)-3-pyridinecarboximidamide]	95 µM
Cc1ccc(CN=C(NC#N)c2cccnc2)cc1 [(18), N-cyano-N'-(4-methylbenzyl)-3-pyridinecarboximidamide]	22 µM
COc1ccc(CN=C(NC#N)c2cccnc2)cc1 [(19), N-cyano-N'-(4-methoxybenzyl)-3-pyridinecarboximidamide]	37 µM
N#CNC(=NCc1ccc(C(F)(F)F)cc1)c1cccnc1 [(21), N-cyano-N'-[4-(trifluoromethyl)benzyl]-3-pyridinecarboximidamide]	70 µM
N#CNC(=NCc1ccc([N+](=O)[O-])cc1)c1cccnc1 [(23), N-cyano-N'-(4-nitrobenzyl)-3-pyridinecarboximidamide]	98 µM
N#CNC(=NCc1ccc(Cl)c(Cl)c1)c1cccnc1 [(24), N-cyano-N'-(3,4-dichlorobenzyl)-3-pyridinecarboximidamide]	21 µM
N#CNC(=NCc1cccc(OCc2ccccc2)c1)c1cccnc1 [(26), N-cyano-N'-(3-benzyloxybenzyl)-3-pyridinecarboximidamide]	23 µM
COc1ccccc1CCN=C(NC#N)c1cccnc1 [(28), N-cyano-N'-[2-(2-methoxyphenyl)ethyl]-3-pyridinecarboximidamide]	70 µM
N#CNC(=NCCc1ccc(Cl)cc1)c1cccnc1 [(30), N-cyano-N'-[2-(4-chlorophenyl)ethyl]-3-pyridinecarboximidamide]	43 µM

Continued by falling IC50, values first:

IC50	SMILES
72 µM	Cc1ccc(CCN=C(NC#N)c2ccccn2)cc1 [(9), N-cyano-N'-[2-(4-methylphenyl)ethyl]-2-pyridinecarboximidamide]
60 µM	CC(C)(C)CN=C(NC#N)c1ccccn1 [(2), N-cyano-N'-(2,2-dimethylpropyl)-2-pyridinecarboximidamide]
57 µM	N#CNC(=NCc1ccc(C(F)(F)F)cc1)c1ccccn1 [(8), N-cyano-N'-[4-(trifluoromethyl)benzyl]-2-pyridinecarboximidamide]
40 µM	N#CNC(=NCCc1ccc(Cl)cc1)c1ccccn1 [(10), N-cyano-N'-[2-(4-chlorophenyl)ethyl]-2-pyridinecarboximidamide]
31 µM	N#CNC(=Nc1ccccc1)c1ccccn1 [(4), N-cyano-N'-phenyl-2-pyridinecarboximidamide]
24 µM	N#CNC(=NCc1cc(C(F)(F)F)cc(C(F)(F)F)c1)c1cccnc1 [(25), N-cyano-N'-[3,5-bis(trifluoromethyl)benzyl]-3-pyridinecarboximidamide]
22 µM	N#CNC(=NCc1ccc(Cl)cc1)c1cccnc1 [(22), N-cyano-N'-(4-chlorobenzyl)-3-pyridinecarboximidamide]
17 µM	Cc1ccc(N=C(NC#N)c2cccnc2)cc1 [(16), N-cyano-N'-(4-methylphenyl)-3-pyridinecarboximidamide]
